One experiment deals with T1, Beta-secretase 1 (Homo sapiens, UniProt P56817). Nature of the experiment: Inhibition of BACE1 in human HEK293 cells transfected with pCDNA-neo-SEAP-APP assessed as secreted alkaline phosphatase after cleavage of beta-site of APP by fluorescence assay. Type of experiment: cell-based.
T1 sequence (P56817 whole entry): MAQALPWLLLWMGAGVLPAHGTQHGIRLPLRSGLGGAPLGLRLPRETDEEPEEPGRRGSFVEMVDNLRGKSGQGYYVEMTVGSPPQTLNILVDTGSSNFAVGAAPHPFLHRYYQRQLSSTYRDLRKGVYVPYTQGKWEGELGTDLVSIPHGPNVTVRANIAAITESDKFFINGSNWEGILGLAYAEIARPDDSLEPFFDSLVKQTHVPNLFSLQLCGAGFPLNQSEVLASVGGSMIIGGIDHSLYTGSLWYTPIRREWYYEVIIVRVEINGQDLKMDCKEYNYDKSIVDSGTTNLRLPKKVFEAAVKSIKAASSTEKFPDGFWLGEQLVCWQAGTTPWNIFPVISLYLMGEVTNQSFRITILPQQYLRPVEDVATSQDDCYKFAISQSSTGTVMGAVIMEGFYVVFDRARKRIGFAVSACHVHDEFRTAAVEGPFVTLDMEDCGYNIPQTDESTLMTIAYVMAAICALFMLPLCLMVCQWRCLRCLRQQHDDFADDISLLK
Broadly, the IC50 is the point on the concentration scale where inhibition reaches its midpoint. As to `CCCC1C(C(=O)N[C@@H](Cc2ccccc2)[C@H](O)CNC2CC2)=CN(CC(=O)OC(C)C)C=C1C(=O)N[C@H](C)c1ccccc1` (stereo not given in full), the IC50 is 29.6 µM. `CCCC1C(C(=O)N[C@@H](Cc2ccccc2)[C@H](O)CNc2cccc(OC)c2)=CN(CC(=O)OC(C)C)C=C1C(=O)N[C@H](C)c1ccccc1` (stereo not given in full): the IC50 amounted to 31.2 µM. The same measure, in the same setting: with `CC(=O)C1=C(C)N(CC(=O)OC(C)C)C(C)=C(C(=O)N[C@@H](Cc2ccccc2)[C@H](O)CNc2cccc(F)c2)C1C` (stereo not given in full) the figure was 26.4 µM; with `COC(=O)CN1C(C)=C(C(=O)NOCc2ccccc2)C(C)C(C(=O)N[C@@H](Cc2ccccc2)[C@H](O)CNC2CC2)=C1C` (stereo not given in full), 15.2 µM. On the same count and under the same terms, the figure for `CC1=C(C(=O)OCc2ccccc2)C(C)C(C(=O)N[C@@H](Cc2ccccc2)[C@H](O)CNC2CC2)=CN1CC(=O)OC(C)C` (stereo not given in full) is 16.1 µM; for `CC1=C(C(=O)NOCc2ccccc2)C(C(C)C)C(C(=O)N[C@@H](Cc2ccccc2)[C@H](O)CNC2CC2)=C(C)N1S(C)(=O)=O` (stereo not given in full) it is 11 µM.

Take `CC(=O)C1=C(C)N(CC(=O)OC(C)C)C=C(C(=O)N[C@@H](Cc2ccccc2)[C@H](O)CNc2cccc(F)c2)C1C` (stereo not given in full): the IC50 stood at 29.3 µM. In the case of `CCCC1C(C(C)=O)=C(C)N(CC(=O)OC(C)C)C(C)=C1C(=O)N[C@@H](Cc1ccccc1)[C@H](O)CNCc1cccc(OC)c1` (stereo not given in full), the IC50 turned out to be 23.2 µM.

As for `COc1cccc(CNC[C@@H](O)[C@H](Cc2ccccc2)NC(=O)C2=CN(CC(=O)OC(C)C)C(C)=C(C(C)=O)C2C)c1` (stereo not given in full), the IC50 was determined as 26.1 µM.

For the compound `CC1=C(C(=O)NOCc2ccccc2)C(C)C(C(=O)N[C@@H](Cc2ccccc2)[C@H](O)CNC2CC2)=C(C)N1S(C)(=O)=O` (stereo not given in full), the IC50 came to 14.9 µM. As to `CCCC1C(C(=O)N[C@@H](Cc2ccccc2)[C@H](O)CNC2CC2)=CN(CC(=O)OC(C)C)C=C1C(=O)OC(C)(C)C` (stereo not given in full), the IC50 was found to be 24.6 µM.

Turning to `CC1=C(C(=O)N[C@@H](Cc2ccccc2)[C@H](O)CNC2CC2)C(C)C(C(=O)OCc2ccccc2)=C(C)N1CC(=O)N1CCOCC1` (stereo not given in full), the IC50 was 28.4 µM. The same measure, in the same setting: with `CC1=C(C(=O)N[C@@H](Cc2ccccc2)[C@H](O)CNC2CC2)C(C)C(C(=O)OCc2ccccc2)=C(C)N1CC(=O)N(C)C(C)C` (stereo not given in full) the figure was 28.2 µM; with `CC1=C(C(=O)NOCc2ccccc2)C(C)C(C(=O)N[C@@H](Cc2ccccc2)[C@H](O)CNC2CC2)=C(C)N1CC(=O)OC(C)C` (stereo not given in full), 9 µM; with `CC(=O)C1=C(C)N(CC(=O)OC(C)C)C(C)=C(C(=O)N[C@@H](Cc2ccccc2)[C@H](O)CNC2CC2)C1C` (stereo not given in full), 29.3 µM. Turning to `CC1=C(C(=O)N[C@@H](Cc2ccccc2)[C@H](O)CNC2CC2)C(C)C(C(=O)OCc2ccccc2)=C(C)N1CC(=O)N(C)C` (stereo not given in full), the IC50 is 39.1 µM. On to `CC1=C(C(=O)N[C@@H](Cc2ccccc2)[C@H](O)CNC2CC2)C(C)C(C(=O)N[C@H](C)c2ccccc2)=C(C)N1S(C)(=O)=O` (stereo not given in full), for which the IC50 was 16.1 µM. As to `CCCC1C(C(C)=O)=C(C)N(CC(=O)OC(C)C)C(C)=C1C(=O)N[C@@H](Cc1ccccc1)[C@H](O)CNC1CC1` (stereo not given in full), the IC50 came out at 33.1 µM. Consider `CCCC1C(C(=O)N[C@@H](Cc2ccccc2)[C@H](O)CNc2cccc(OC)c2)=CN(CC(=O)OC(C)C)C=C1C(=O)OC(C)(C)C` (stereo not given in full), for which the IC50 stood at 30.4 µM. For the compound `CCCC1C(C(C)=O)=C(C)N(CC(=O)OC(C)C)C(C)=C1C(=O)N[C@@H](Cc1ccccc1)[C@H](O)CNc1cccc(OC)c1` (stereo not given in full), the IC50 came to 26.6 µM. The same measure, in the same setting: with `CCC1C(C(=O)N[C@@H](Cc2ccccc2)[C@H](O)CNC2CC2)=C(C)N(S(C)(=O)=O)C(C)=C1C(=O)N[C@H](C)c1ccccc1` (stereo not given in full) the figure was 16.2 µM; with `CCOC(=O)CN1C(C)=C(C(=O)NOCc2ccccc2)C(C)C(C(=O)N[C@@H](Cc2ccccc2)[C@H](O)CNC2CC2)=C1C` (stereo not given in full), 15.5 µM. Turning to `CC1=C(C(=O)NOCc2ccccc2)C(c2ccccc2)C(C(=O)N[C@@H](Cc2ccccc2)[C@H](O)CNC2CC2)=C(C)N1S(C)(=O)=O` (stereo not given in full), the IC50 amounted to 21.4 µM. For `CCC1C(C(=O)NOCc2ccccc2)=C(C)N(S(C)(=O)=O)C(C)=C1C(=O)N[C@@H](Cc1ccccc1)[C@H](O)CNC1CC1` (stereo not given in full), the IC50 was determined as 9.5 µM.

For the compound `CC(C)OC(=O)CN1C=C(C(=O)N[C@@H](Cc2ccccc2)[C@H](O)CNC2CC2)C(C)C(C(=O)N[C@H](C)c2ccccc2)=C1` (stereo not given in full), the IC50 was 32.8 µM.

As to `CCCC1C(C(=O)NOCc2ccccc2)=C(C)N(S(C)(=O)=O)C(C)=C1C(=O)N[C@@H](Cc1ccccc1)[C@H](O)CNC1CC1` (stereo not given in full), the IC50 came out at 8.1 µM. Take `CCCC1C(C(C)=O)=C(C)N(CC(=O)OC(C)C)C(C)=C1C(=O)N[C@@H](Cc1ccccc1)[C@H](O)CNc1cccc(F)c1` (stereo not given in full): the IC50 was found to be 27.1 µM. On the same count and under the same terms, the figure for `CC(C)OC(=O)CN1C=C(C(=O)N[C@@H](Cc2ccccc2)[C@H](O)CNC2CC2)C(C)C(C(=O)OC(C)(C)C)=C1` (stereo not given in full) is 31.9 µM; for `CC(=O)OCCCN1C(C)=C(C(=O)N[C@@H](Cc2ccccc2)[C@H](O)CNC2CC2)C(C)C(C(=O)OCc2ccccc2)=C1C` (stereo not given in full) it is 26.9 µM.

For another experiment, the target named is T1, Beta-secretase 1. Nature of the experiment: Inhibition of BACE1.
As to `CCNc1cc(C(=O)N[C@@H](Cc2ccccc2)[C@H](O)CNc2cccc(C(F)(F)F)c2)cc(N2CCCCS2(=O)=O)c1`, the half-inhibitory concentration (IC50) is 0.005 µM.
